From PMC5678437, “A new antagonist for CCR4 attenuates allergic lung inflammation in a mouse model of asthma” (Scientific Reports, 2017) come the findings set out here.

Like-named read-outs stand apart in the source and are kept apart here.

The target in one assay is T1, CCR4 (Homo sapiens, UniProt P51679).
T1 construct: expressed in transfected cells; cell membrane extract
T1 sequence (P51679 1-360): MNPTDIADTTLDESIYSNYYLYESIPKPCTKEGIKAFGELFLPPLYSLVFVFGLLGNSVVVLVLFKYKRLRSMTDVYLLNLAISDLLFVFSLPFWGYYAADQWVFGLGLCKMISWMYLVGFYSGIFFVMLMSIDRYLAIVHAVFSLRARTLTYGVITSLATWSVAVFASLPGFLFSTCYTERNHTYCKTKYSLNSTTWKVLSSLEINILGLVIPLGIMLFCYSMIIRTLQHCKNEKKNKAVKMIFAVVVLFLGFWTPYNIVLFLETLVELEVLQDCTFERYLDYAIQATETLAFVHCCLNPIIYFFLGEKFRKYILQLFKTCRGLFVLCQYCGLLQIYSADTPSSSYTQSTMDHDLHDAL
Briefly: Radio ligand competition binding assay on CCR4 cell membrane extract. Particulars: HEK293 CCR4 cell membrane extract, 4 °C, 24 h. The protocol: A HEK293 cell line stably expressing CCR4-enhanced green fluorescent protein was established. CCL22, CCL17 and C27 were labeled with [^125I]. For competition binding assays, equivalent quantities of cell membrane extract and [^125I]-CCL22, [^125I]-CCL17 and [^125I]-C27 were incubated with varying quantities of unlabeled compound 8a, compound 6b and compound 22. All reactions were incubated at 4 °C for 24 h. After the binding step, 25% polyethylene glycol (6000–8000) and 0.5% human g-globulin were added, and the mixture was incubated at room temperature for 15 min. Binding complexes were obtained by centrifuging the mixture at 3500 rpm for 20 min at 4 °C, and radioactivity was evaluated. Results were corrected for “blank” background radiation, defined as the radioactivity precipitated by polyethylene glycol–g-globulin from the same amount of radioactive ligand in binding buffer in the absence of cells.

A further assay has as its target T2, CCR6 (Homo sapiens, UniProt P51684).
T2 construct: expressed in transfected cells; host or cells: HEK293, pcDI-CCR6 plasmid made in the authors' laboratory
T2 sequence (P51684 1-374): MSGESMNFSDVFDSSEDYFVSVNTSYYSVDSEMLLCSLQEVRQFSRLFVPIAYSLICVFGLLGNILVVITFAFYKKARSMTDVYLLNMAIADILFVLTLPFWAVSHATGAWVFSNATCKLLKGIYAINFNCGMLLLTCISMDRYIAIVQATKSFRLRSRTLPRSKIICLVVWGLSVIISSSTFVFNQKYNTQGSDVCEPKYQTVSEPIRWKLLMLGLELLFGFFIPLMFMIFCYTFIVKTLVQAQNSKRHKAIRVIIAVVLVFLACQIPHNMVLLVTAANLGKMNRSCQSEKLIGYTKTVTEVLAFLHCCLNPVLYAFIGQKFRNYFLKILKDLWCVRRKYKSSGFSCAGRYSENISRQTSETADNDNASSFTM
Briefly: Chemotaxis inhibition assay for receptor specificity, HEK293-CCR6. The assay is classed as cell-based. To be noted: 0.2, 1, 5, 25 μM, 30 min pretreatment. On the procedure:
(§1) HEK293 cells were transfected with different chemokine receptors. The corresponding chemokines of different receptors were placed in the lower chambers. The transfected cells were pretreated with different concentrations of Compound 8a or 1‰ DMSO for 30 min at a density of 1 × 10^6 cells/ml and added to the upper chambers, the final concentration of the compound is: 0.2 μM, 1 μM, 5 μM, and 25 μM, respectively.

A further assay addresses T3, CXCR3 (Homo sapiens, UniProt P49682).
T3 construct: expressed in transfected cells; host or cells: HEK293; plasmid from Chinese National Human Genome Center
T3 sequence (P49682 1-415 isoform P49682-2): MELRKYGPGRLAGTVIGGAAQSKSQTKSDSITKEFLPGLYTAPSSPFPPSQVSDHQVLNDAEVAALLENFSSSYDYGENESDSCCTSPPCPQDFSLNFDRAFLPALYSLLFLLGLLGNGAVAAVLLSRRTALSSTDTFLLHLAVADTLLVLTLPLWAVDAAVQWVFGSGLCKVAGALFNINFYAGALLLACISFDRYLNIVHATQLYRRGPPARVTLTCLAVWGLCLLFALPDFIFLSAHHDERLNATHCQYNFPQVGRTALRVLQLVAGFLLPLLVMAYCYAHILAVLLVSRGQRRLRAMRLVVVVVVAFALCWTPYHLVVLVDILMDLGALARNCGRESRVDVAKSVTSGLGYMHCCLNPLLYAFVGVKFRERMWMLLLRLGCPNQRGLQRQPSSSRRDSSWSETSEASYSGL
Briefly: Chemotaxis inhibition assay for receptor specificity, HEK293-CXCR3. The format is cell-based. Particulars: 0.2, 1, 5, 25 μM, 30 min pretreatment. On the procedure:
as §1

Another assay has as its system IL-4. Put plainly: IL-4 in lung homogenate by ELISA in OVA-induced asthmatic mice. The format is in vivo, BALB/c mice. To be noted: 5 mg inhaled aerosol; after OVA challenge. The protocol: Male BALB/c 6 week old mice were purchased from the Experimental Animal Center of Zhejiang University. All mice were raised in a specific pathogen-free animal facility. All animal experiments were carried out according to the guidelines for the care and use of laboratory animals and were approved by the ethics committee of Zhejiang University and Peking University, China.
Mice were sensitized and challenged with chicken egg OVA (sigma-Aldrich, St Louis, MO, USA) as described in details previously. Briefly, after sensitized by intraperitoneal injection of 100 μl (80 μg) OVA in 100 μl alum (Pierce, Rockford, IL, USA) on days 0 and 14, mice were exposure to 1% OVA aerosols for 40 min on days 24–26. Control mice were injected intraperitoneally with saline and exposed to saline aerosols.
Compound 8a was dissolved in saline with DMSO (0.5%). Half an hour before each OVA challenge, the groups of mice treated with various doses of compound 8a (0.2, 1, 5 mg) inhaled aerosolized compound 8a for 45 min on days 24–26. […]
Twenty-four hours after the last challenge, lungs were removed from control or asthmatic mice, and they were cut into pieces and homogenized in 500 μl PBS, centrifuged (2000 rpm, 10 min) and the supernatant collected. The concentration of IL-4 in lungs were determined by ELISA kit (Sensitivity: 2 pg/ml, R&D Systems, Minneap-olis, MN, USA) following the manufacturer’s protocol.
(In general: ELISA stands for enzyme-linked immunosorbent assay.)

One may read the IC50 as the concentration that gives 50% inhibition. In the case of `O=C(C1CCCCN1)N1CCN(c2nc(Cl)cc(NCc3ccc(Cl)cc3Cl)n2)CC1` (stereo not drawn) [compound 8a, {4-[4-Chloro-6-(2,4-dichloro-benzylamino)-pyrimidin-2-yl]-piperazin-1-yl}-piperidin-2-yl-methanone], the IC50 on CCR4 ([125I]-C27, read-out: IC50, competitive binding with C27 to CCR4) worked out at 62 nM; on CCR4 ([125I]-CCL17, read-out: IC50, competitive binding with CCL17 to CCR4), 151 nM; at CCR4 ([125I]-CCL22, read-out: IC50, competitive binding with CCL22 to CCR4), 272 nM. Also, at CCR6, the “inhibition of chemotaxis of HEK293-CCR6 to its ligand” value is on record as “few influence”. Besides, at CXCR3, the “inhibition of chemotaxis of HEK293-CXCR3 to its ligand” value was “few influence”. In the assay with IL-4, the “expression of IL-4 in lungs (ELISA)” value is on record as “notably decreased”.
